Laboratory results: publication PMC10614203, “Synthesis, Structure–Activity Relationships, Radiofluorination, and Biological Evaluation of [^18F]RM365, a Novel Radioligand for Imaging the Human Cannabinoid Receptor Type 2 (CB2R) in the Brain with PET” (Journal of Medicinal Chemistry, 2023)
Like-named read-outs stand apart in the source and are kept apart here.

Biological target: T1, hCB2R(D80N) (Homo sapiens, UniProt P34972, D80N)
T1 construct: expressed in transfected cells; host or cells: neurons of the right striatum of male Wistar rats, transduced in vivo with the AAV2/7-CaMKII0.4-intron-hCB2R(D80N) vector
T1 sequence (P34972 whole entry D80N): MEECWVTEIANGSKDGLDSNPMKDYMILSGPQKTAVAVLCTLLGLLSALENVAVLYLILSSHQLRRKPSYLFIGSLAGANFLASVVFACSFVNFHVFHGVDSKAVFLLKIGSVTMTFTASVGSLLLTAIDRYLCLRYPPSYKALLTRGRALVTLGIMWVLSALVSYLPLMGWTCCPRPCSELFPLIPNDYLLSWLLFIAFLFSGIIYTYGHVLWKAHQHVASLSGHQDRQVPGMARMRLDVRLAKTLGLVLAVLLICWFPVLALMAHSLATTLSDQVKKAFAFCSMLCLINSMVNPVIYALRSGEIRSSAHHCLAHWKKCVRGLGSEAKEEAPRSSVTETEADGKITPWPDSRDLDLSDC
Assay type: in vivo
Conditions: for reduction of the normalized AUC between 20 and 60 min p.i.: GW405833 i.v. 20 min after radioligand
From the text: In a proof-of-concept study, the specific binding to the human CB2R and the ability to cross the blood–brain barrier of [^18F]RM365 in vivo was investigated by PET imaging experiments using an established rat model with a local overexpression of hCB2R(D80N) in the right striatum (target region).[32],[66] Exemplary images of the averaged time frames of the PET study, as well as the TACs of the target region and both reference regions on the contralateral site and the cerebellum, are shown in Figure 10. […] However, the TAC peak value was four to five times lower in the reference regions, which was reflected by the seven to eight times lower accumulated activity over time expressed as the area under the curve (AUC) of [^18F]RM365 (Table 3). The high signal-to-background ratio is reflected by a SUVr of 15 ± 5 and 20 ± 5 for the target region-to-contralateral and -cerebellum ratios, respectively, at 60 min p.i. […] Additionally, we investigated the reversibility of the binding toward the human CB2R receptor in vivo in displacement studies by administering the CB2R-specific agonist GW405833 into the tail vein 20 min after the radioligand injection into the hCB2R(D80N)-overexpressing rat model (Figure 10B, Table 3). […] The signal in the contralateral side (p-value = 0.1621, two-way ANOVA) and in the cerebellum (p-value = 0.6177, two-way ANOVA) was not affected by the treatment over time with GW405833 (Figure S6), underlining the eligibility of these reference regions.
In vivo biodistribution studies of [^18F]RM365 were performed in female CD-1 mice (n = 4, 31 ± 3 g) and female Wistar rats (n = 4, 150 ± 11 g). For the uptake studies into the brain, male Wistar rats carrying the stereotactically injected AAV2/7-CaMKII0.4-intron-hCB2R(D80N) (right striatum) and AAV2/7-CaMKII0.4-intron-3flag-eGFP (control/contralateral, left striatum) were used (n = 6; bodyweights were 260 ± 11 g). Data were assessed by dynamic small animal PET (Nanoscan, Mediso, Budapest, Hungary) in 60 min recordings, followed by T1-weighted (GRE, TR/TE = 15.0/2.4 ms, 252/252, FA = 25°) MR imaging with whole-body coils for anatomical correlation and attenuation correction.
The PET scans were performed 3−4 months after the stereotactic injections. Animals were initially anesthetized with 5% isoflurane and placed on a thermostatically heated animal bed, where anesthesia was maintained with 2% isoflurane in 60% oxygen/38% room air. […] Nonparametric (semiquantitative) analysis of achieved time–activity curves (TACs) was performed with Microsoft Excel to determine the time to peak, the TAC peak value, and the area under the curve (AUC) [drawing 1] where c (radioactivity) is expressed as the standardized uptake value normalized to the bodyweight in g (SUV). […]

[1] = male, Wistar, rat, in vivo, 60 min

SMILES: CC1(C)Cc2ccc(C#N)cc2[C@@H]1NC(=O)c1cc2cc([18F])ccc2[nH]1 [[^18F]RM365]
- reduction of the normalized AUC between 20 and 60 min p.i. (cerebellum as reference region): 70%
- reduction of the normalized AUC between 20 and 60 min p.i. (contralateral site as reference region): 64%
- SUVr target region-to-cerebellum [1]: 20 ± 5
- SUVr target region-to-contralateral [1]: 15 ± 5
